Test results published in patent publication US7629439B2, “Peptides derived from the protein MMP-2, and the use thereof in antitumoral immunotherapy” (INSERM (Institut National de la Sante et de la Recherche …, priority 2003, dated 2009).

System: T2 cells
Experiment: 51Cr release: sensitization of T2 cells to lysis by CTL clone M134.12
Format: cell-based
Conditions: 51Cr-labeled T2 cells, 60 minutes at 37° C. with peptide, effector/target ratio 10/1, 4 hours; compared among four peptides (FIG. 4)
Protocol: These peptides were used to sensitize T2 cells labeled with ^51Cr. These cells were incubated for 60 minutes at 37° C. with various concentrations of each of the peptides to be tested. CTL M134.12 effector cells were then added at an effector cell/target cell ratio of 10/1. The amount of ^51Cr released into the supernatant is measured 4 hours later.
Along the y-axis, the percentage specific lysis.
Along the x-axis, the concentration of peptide LGLPPDVQRV (●) (SEQ ID NO: 2), GLPPDVQRV (▪) (SEQ ID NO: 1), LPPDVQRV (▴) (SEQ ID NO: 3), or GLPPDVQR(X) (SEQ ID NO: 4) in nM.

Sequence: GLPPDVQRV (listed as Homo sapiens) [peptide derived from region 556-593 of the MMP-2 protein, presented by HLA-A*0201]
- sensitizing T2 cells to lysis by the CTL clone M134.12 (percentage specific lysis): most effective
